The source of these data is US8658652B2, “Antifolate combinations” (Chelsea Therapeutics, Inc., priority 2010, dated 2014).

Assay type in all cases: in vivo
Experiment [1] deals with developing type II collagen arthritis in rats. Description: Ankle histopathology in 17 day rat developing type II collagen arthritis test. The note with it: for Ankle histopathology, reduction of summed scores: vs vehicle treated disease controls. The text has this: (§1) Female Lewis rats (n=74) weighing 140-161 grams (mean approximate weight=148 g) on day 0 of the study were obtained from Charles River Laboratories, Inc., Wilmington, Mass. Animals were identified by a distinct number delineating group and animal number. After randomization, all cages were labeled with protocol number, group number, and animal number with appropriate color-coding.
(§2) Animals were anesthetized with Isoflurane and received subcutaneous/intradermal (SC/ID) injections with […] of Freund's Incomplete Adjuvant (Difco, Detroit, Mich.) containing 2 mg/ml bovine type II collagen (Elastin Products, Owensville, Mo.) at the base of the tail and two sites on the back on days 0 and 6. Dosing was initiated on day 0 of the study (prior to boosting procedures) and continued daily (QD at 24 hour intervals) through day 16. Animals were terminated on day 17. The experimental groups were as follows in Table 1, wherein “CH vehicle” means the vehicle used to deliver the compound CH-4051 without the inclusion of the active compound, and “MTX vehicle” means the vehicle used to deliver methotrexate without the inclusion of the active compound. The terms “QD” and “PO” have the standard meanings in the art—i.e., “once daily” and “by mouth”, respectively.
(§3) After final body weight measurement on day 17, animals were anesthetized for terminal serum collection (retained), and then euthanized for tissue collection. Hind paws were transected at the level of the medial and lateral malleolus, weighed, and were placed in formalin with knees for potential microscopy. Livers, spleen, and thymus were removed, trimmed, weighed, and discarded.
(§4) Preserved and decalcified (5% formic acid) ankle and knee joints were cut in half longitudinally (ankles) or in the frontal plane (knees), processed through graded alcohols and a clearing agent, infiltrated and embedded in paraffin, sectioned, and stained with Toluidine Blue (T. blue) by Bolder BioPATH, Inc. associated personnel (HistoTox Labs, Inc.). Tissues from all animals were examined microscopically by a board certified veterinary pathologist, and observations were entered into a computer-assisted data retrieval system.
(§5) Clinical data for ankle joint diameter were analyzed by determining the area under the curve (AUC). For calculation of AUC, the daily measurement of ankle joints (using a caliper) for each rat were entered into a spreadsheet, and the area between the treatment days after the onset of disease to the termination day was computed. Means for each group were determined and % inhibition from arthritis controls was calculated by comparing values for treated and […] animals. Data were analyzed using a Student's t-test or Mann-Whitney U test (non-parametric). If applicable, data were analyzed again, across all groups, using a one-way analysis of variance (1-way ANOVA) or Kruskal-Wallis test (non-parametric), along with the appropriate multiple comparison post-test. ANOVA was performed using Prism 5.0c software (GraphPad Software, Inc.). Significance for all tests was set at p<0.05. Percent inhibition was calculated using the following formula: […]. The results of the testing are described below in relation to the various, referenced figures. In all cases, n=4 for Normal Controls, and n=10 for the treatment group.

Experiment [2] is described as follows: Body weight gain in 17 day rat developing type II collagen arthritis test. As to conditions: vs vehicle treated disease controls.
From the text: as §1
Animals were anesthetized with Isoflurane and received subcutaneous/intradermal (SC/ID) injections with […] of Freund's Incomplete Adjuvant (Difco, Detroit, Mich.) containing 2 mg/ml bovine type II collagen (Elastin Products, Owensville, Mo.) at the base of the tail and two sites on the back on days 0 and 6. Dosing was initiated on day 0 of the study (prior to boosting procedures) and continued daily (QD at 24 hour intervals) through day 16. Animals were terminated on day 17. […]
Clinical data for ankle joint diameter were analyzed by determining the area under the curve (AUC). […] Means for each group were determined and % inhibition from arthritis controls was calculated by comparing values for treated and […] animals. Data were analyzed using a Student's t-test or Mann-Whitney U test (non-parametric). If applicable, data were analyzed again, across all groups, using a one-way analysis of variance (1-way ANOVA) or Kruskal-Wallis test (non-parametric), along with the appropriate multiple comparison post-test. […]

The test system of experiment [3] is developing type II collagen arthritis in rats. The experiment can be described thus: Overall effect on developing arthritis parameters, rat type II collagen arthritis. The note with it: for Effect on arthritis parameters: alone.
From the text: as §1, §2, §5

For experiment [4] the test system is unchanged. The experiment can be described thus: Ankle diameter (caliper) in 17 day rat developing type II collagen arthritis test. As to conditions: for Daily ankle diameter reduced toward normal, days of significance: vs vehicle controls; for Ankle diameter AUC reduction toward normal: vs vehicle treated disease controls.
From the text: as §1, §2
Rats were weighed on days 0, 3, 6, and 9-17 of the study, and caliper measurements of ankles were taken every day beginning on day 9 (or day 0 of arthritis). Ankle caliper measurements were made with Digitrix II micrometer (Fowler & NSK). Baseline measurements were taken using one ankle with values rounded to one-thousandth of an inch. Measurements were confirmed as clinically normal (0.260-0.264 inches) by comparison with historical values for rats based on a range of body weights. Baseline measurements were then applied to both ankles, and these values remained with the animal so long as the ankle was clinically normal with good definition of all the ankle bones and no evidence of inflammation.
Clinical data for ankle joint diameter were analyzed by determining the area under the curve (AUC). […] Means for each group were determined and % inhibition from arthritis controls was calculated by comparing values for treated and […] animals. Data were analyzed using a Student's t-test or Mann-Whitney U test (non-parametric). If applicable, data were analyzed again, across all groups, using a one-way analysis of variance (1-way ANOVA) or Kruskal-Wallis test (non-parametric), along with the appropriate multiple comparison post-test. […] Percent inhibition was calculated using the following formula: % Change=B/A×100, wherein A is the mean normal (mean disease control), and B is the mean treated (mean disease control). […]

Experiment [5] shares this test system. Description: Knee histopathology in 17 day rat developing type II collagen arthritis test.
From the text: as §1, §2, §3, §4, §5

Experiment [6] has the same test system. The description is as above. As to conditions: 0.2 mg/kg MTX 2X/week PO (Group 6); vs vehicle controls.
[7] abbreviates: 2.5 mg/kg CH-4051 alone (Group 4), FIG. 11.
Where [8] appears, read: 5 mg/kg CH-4051 alone (Group 7), FIG. 14.
[9] abbreviates: 5 mg/kg CH-4051 daily PO (Group 7).
[10] abbreviates: 2.5 mg/kg CH-4051 alone (Group 4), FIG. 19.
The mark [11] stands for this setting: 0.1 mg/kg methotrexate alone (Group 3), FIG. 10.
The mark [12] stands for this setting: 0.2 mg/kg methotrexate alone (Group 6), FIG. 13.
[13] abbreviates: 0.2 mg/kg MTX 2X/week PO (Group 6).
Setting [14] is: 0.1 mg/kg methotrexate alone (Group 3), FIG. 18.

Each structure is given as a SMILES string.

As to `C=C(C[C@H](NC(=O)c1ccc(CCc2ccc3nc(N)nc(N)c3c2)cc1)C(=O)O)C(=O)O` [CH-4051, (S)-2-{4-[2-(2,4-diamino-quinazolin-6-yl)-ethyl]-benzoylamino}-4-methylene-pentanedioic acid], in experiment [1] (setting [7]), the “Ankle cartilage damage, photomicrograph of approximate mean summed score” value (“Ankle cartilage damage, photomicrograph” for short) was “mild”; the “Ankle inflammation, photomicrograph of approximate mean summed score” value (“Ankle inflammation, photomicrograph” below) is “marked”; the “Ankle pannus, photomicrograph of approximate mean summed score” value (shortened to “Ankle pannus, photomicrograph”) is “mild”. Moreover, in experiment [1] (setting [8]), the “Ankle cartilage damage, photomicrograph” value is “minimal”; the “Ankle inflammation, photomicrograph” value was “mild”; the “Ankle pannus, photomicrograph” value is “minimal”. Moreover, the “Ankle histopathology, reduction of summed scores” value in experiment [1] (setting [9]) was found to be 75%. Also, the “Body weight gain increase toward normal” value in experiment [2] (setting [9]) is listed as 84%. For the same compound, the “Effect on developing arthritis parameters” value in experiment [3] (2.5 mg/kg CH-4051 (daily doses)) is recorded as “only minimal, non-significant effects”. In experiment [3] (5 mg/kg CH-4051 per day), the “Effect on arthritis parameters” value is “good inhibition of all arthritis parameters”. In experiment [4] (setting [9]), the “Daily ankle diameter reduced toward normal, days of significance” value is recorded as “significant at days 10-17” and the “Ankle diameter AUC reduction toward normal” value is recorded as 81%. In addition, in experiment [5] (setting [10]), the “Knee bone resorption, photomicrograph of highest summed score in group” value was “bone resorption”; the “Knee cartilage damage, photomicrograph of highest summed score in group” value is listed as “moderate”; the “Knee inflammation, photomicrograph of highest summed score in group” value (shortened to “Knee inflammation, photomicrograph”) is reported as “severe”; the “Knee pannus, photomicrograph of highest summed score in group” value is on record as “mild”. Besides, the “Knee inflammation, photomicrograph” value in experiment [5] (5 mg/kg CH-4051 alone (Group 7), FIG. 22) was “mild”. Also, the “Knee histopathology, reduction of summed scores” value in experiment [5] (5 mg/kg CH-4051 daily PO (Group 7), vs vehicle treated disease controls) was found to be 92%.
As for `CN(Cc1cnc2nc(N)nc(N)c2n1)c1ccc(C(=O)N[C@@H](CCC(=O)O)C(=O)O)cc1` [MTX, methotrexate], in experiment [6], the “Knee bone resorption score reduction” value was found to be 95%, the “Knee cartilage damage score reduction” value amounted to 91% and the “Knee pannus score reduction” value was determined as 91%. Further, in experiment [1] (0.1 mg/kg MTX—Group 6 (so in the source)), the “Ankle histopathology, reduction of summed scores” value turned out to be 59%. Further, in experiment [1] (setting [11]), the “Ankle cartilage damage, photomicrograph” value is on record as “mild”; the “Ankle inflammation, photomicrograph” value is “marked”; the “Ankle pannus, photomicrograph” value is “minimal”. Moreover, in experiment [1] (setting [12]), the “Ankle cartilage damage, photomicrograph” value is on record as “minimal”; the “Ankle inflammation, photomicrograph” value is “mild”; the “Ankle pannus, photomicrograph” value is recorded as “minimal”. The “Body weight gain increase toward normal” value in experiment [2] (setting [13]) was determined as 68%. The “Effect on developing arthritis parameters” value in experiment [3] (0.1 mg/kg MTX (dosed 2 times per week)) is recorded as “only minimal, non-significant effects”. For the same compound, in experiment [3] (0.2 mg/kg MTX twice weekly), the “Effect on arthritis parameters” value is reported as “good inhibition of all arthritis parameters”. The “Daily ankle diameter reduced toward normal, days of significance” value in experiment [4] (0.1 mg/kg MTX 2X/week PO (Group 3)) is listed as “significant at day 11”. Besides, in experiment [4] (setting [13]), the “Ankle diameter AUC reduction toward normal” value was 72%. In experiment [5] (setting [14]), the “Knee bone resorption, photomicrograph of highest summed score in group” value is given as “bone resorption”; the “Knee cartilage damage, photomicrograph of highest summed score in group” value is on record as “mild”; the “Knee inflammation, photomicrograph” value is “severe”; the “Knee pannus, photomicrograph of highest summed score in group” value is “mild”. Further, in experiment [5] (0.2 mg/kg methotrexate alone (Group 6), FIG. 21), the “Knee inflammation, photomicrograph” value was “mild”.
